According to patent US8796289B2 (AbbVie Inc., priority 2011, dated 2014):

Target: GST-tagged-Wee1 kinase (Homo sapiens, UniProt P30291)
Assay: Wee1 time-resolved fluorescence equilibrium binding assay (displacement of Oregon Green-labeled ATP-competitive kinase probe)
Experimental: Wee1 kinase was assayed using a time-resolved fluorescence equilibrium binding assay monitoring displacement of a rapidly reversible Oregon Green-labeled ATP-competitive kinase probe (N-(2-(2-(2-(4-(4-(5-chloro-4-(2-(1-hydroxycyclobutyl)thiazol-5-yl)-1H-pyrrolo[2,3-b]pyridin-2-yl)phenyl)piperazin-1-yl)ethoxy)ethoxy)ethyl)-2′,7′-difluoro-3′,6′-dihydroxy-3-oxo-3H-spiro[isobenzofuran-1,9′-xanthene]-5-carboxamide) by competitive Wee1 inhibitors.

GST-tagged-Wee1 kinase, sequence (P30291 whole entry): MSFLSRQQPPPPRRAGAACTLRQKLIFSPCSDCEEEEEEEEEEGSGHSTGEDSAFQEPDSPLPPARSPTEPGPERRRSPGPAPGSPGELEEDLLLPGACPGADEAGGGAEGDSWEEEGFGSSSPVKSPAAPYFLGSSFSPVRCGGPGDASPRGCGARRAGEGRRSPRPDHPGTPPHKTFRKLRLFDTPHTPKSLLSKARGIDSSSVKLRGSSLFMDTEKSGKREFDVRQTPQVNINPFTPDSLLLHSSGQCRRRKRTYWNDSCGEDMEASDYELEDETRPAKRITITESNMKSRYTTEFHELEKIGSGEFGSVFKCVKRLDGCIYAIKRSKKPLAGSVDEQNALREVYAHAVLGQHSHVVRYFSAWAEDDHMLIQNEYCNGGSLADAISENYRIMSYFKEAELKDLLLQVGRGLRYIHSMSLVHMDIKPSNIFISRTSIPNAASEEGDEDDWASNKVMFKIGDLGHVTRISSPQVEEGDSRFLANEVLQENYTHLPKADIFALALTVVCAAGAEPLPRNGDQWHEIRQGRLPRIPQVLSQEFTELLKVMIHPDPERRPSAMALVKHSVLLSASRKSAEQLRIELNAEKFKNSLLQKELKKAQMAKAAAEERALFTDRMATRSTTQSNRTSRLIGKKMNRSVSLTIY

| SMILES | Ki [nM] |
| --- | --- |
| CCNCCn1cc(-c2nn(-c3c(Cl)cccc3Cl)c(=O)c3cnc(Nc4ccc(N5CCN(C)CC5)cc4)nc23)cn1 [Example 202, 6-(2,6-dichlorophenyl)-8-{1-[2-(ethylamino)ethyl]-1H-pyrazol-4-yl}-2-{[4-(4-methylpiperazin-1-yl)phenyl]amino}pyrimido[4,5-d]pyridazin-5(6H)-one] | 0.3 |
| CN1CCN(c2ccc(Nc3ncc4c(=O)n(-c5c(Cl)cccc5Cl)nc(-c5cncn5C)c4n3)cc2)CC1 [Example 203, 6-(2,6-dichlorophenyl)-8-(1-methyl-1H-imidazol-5-yl)-2-{[4-(4-methylpiperazin-1-yl)phenyl]amino}pyrimido[4,5-d]pyridazin-5(6H)-one] | 0.2 |
| CN(C)Cc1ccc(Nc2ncc3c(=O)n(-c4ccccc4Cl)nc(-c4ccccc4)c3n2)cc1 [Example 204, 6-(2-chlorophenyl)-2-({4-[(dimethylamino)methyl]phenyl}amino)-8-phenylpyrimido[4,5-d]pyridazin-5(6H)-one] | 2 |
| Cc1cc(Nc2ncc3c(=O)n(-c4ccccc4Cl)nc(-c4ccccc4)c3n2)ccc1N1CCN(C(C)C)CC1 [Example 205, 6-(2-chlorophenyl)-2-({3-methyl-4-[4-(propan-2-yl)piperazin-1-yl]phenyl}amino)-8-phenylpyrimido[4,5-d]pyridazin-5(6H)-one] | 0.2 |
| Cc1cc(Nc2ncc3c(=O)n(-c4ccccc4Cl)nc(-c4ccccc4)c3n2)ccc1N1CCCN(C(C)C)CC1 [Example 206, 6-(2-chlorophenyl)-2-({3-methyl-4-[4-(propan-2-yl)-1,4-diazepan-1-yl]phenyl}amino)-8-phenylpyrimido[4,5-d]pyridazin-5(6H)-one] | 0.2 |
| COc1cc(Nc2ncc3c(=O)n(-c4ccccc4Cl)nc(-c4ccccc4)c3n2)ccc1N1CCN(C(C)C)CC1 [Example 207, 6-(2-chlorophenyl)-2-({3-methoxy-4-[4-(propan-2-yl)piperazin-1-yl]phenyl}amino)-8-phenylpyrimido[4,5-d]pyridazin-5(6H)-one] | 0.1 |
| Cc1ccccc1-n1nc(-c2cccs2)c2nc(Nc3ccc(CN(C)C)cc3)ncc2c1=O [Example 208, 2-({4-[(dimethylamino)methyl]phenyl}amino)-6-(2-methylphenyl)-8-(thiophen-2-yl)pyrimido[4,5-d]pyridazin-5(6H)-one] | 2 |
| CN(C)Cc1ccc(Nc2ncc3c(=O)n(-c4ccccc4Cl)nc(-c4cccs4)c3n2)cc1 [Example 209, 6-(2-chlorophenyl)-2-({4-[(dimethylamino)methyl]phenyl}amino)-8-(thiophen-2-yl)pyrimido[4,5-d]pyridazin-5(6H)-one] | 0.8 |
| C=CCn1nc(-c2cccs2)c2nc(Nc3ccc(CN(C)C)cc3)ncc2c1=O [Example 210, 2-({4-[(dimethylamino)methyl]phenyl}amino)-6-(prop-2-en-1-yl)-8-(thiophen-2-yl)pyrimido[4,5-d]pyridazin-5(6H)-one] | 33 |
| CNCCn1cc(-c2nn(-c3c(Cl)cccc3Cl)c(=O)c3cnc(Nc4ccc(N5CCN(C)CC5)cc4)nc23)cn1 [Example 211, 6-(2,6-dichlorophenyl)-8-{1-[2-(methylamino)ethyl]-1H-pyrazol-4-yl}-2-{[4-(4-methylpiperazin-1-yl)phenyl]amino}pyrimido[4,5-d]pyridazin-5(6H)-one] | 0.6 |
| CN(C)CCn1cc(-c2nn(-c3c(Cl)cccc3Cl)c(=O)c3cnc(Nc4ccc(N5CCN(C)CC5)cc4)nc23)cn1 [Example 212, 6-(2,6-dichlorophenyl)-8-{1-[2-(dimethylamino)ethyl]-1H-pyrazol-4-yl}-2-{[4-(4-methylpiperazin-1-yl)phenyl]amino}pyrimido[4,5-d]pyridazin-5(6H)-one] | 0.6 |
| CN1CCN(c2ccc(Nc3ncc4c(=O)n(-c5c(Cl)cccc5Cl)nc(-c5cnn(CCN6CCCCC6)c5)c4n3)cc2)CC1 [Example 213, 6-(2,6-dichlorophenyl)-2-{[4-(4-methylpiperazin-1-yl)phenyl]amino}-8-{1-[2-(piperidin-1-yl)ethyl]-1H-pyrazol-4-yl}pyrimido[4,5-d]pyridazin-5(6H)-one] | 0.6 |
| CN1CCN(CCn2cc(-c3nn(-c4c(Cl)cccc4Cl)c(=O)c4cnc(Nc5ccc(N6CCN(C)CC6)cc5)nc34)cn2)CC1 [Example 214, 6-(2,6-dichlorophenyl)-8-{1-[2-(4-methylpiperazin-1-yl)ethyl]-1H-pyrazol-4-yl}-2-{[4-(4-methylpiperazin-1-yl)phenyl]amino}pyrimido[4,5-d]pyridazin-5(6H)-one] | 0.4 |
| CN1CCN(Cc2cccc(-c3nn(-c4c(Cl)cccc4Cl)c(=O)c4cnc(Nc5ccc(N6CCN(C)CC6)cc5)nc34)c2)CC1 [Example 215, 6-(2,6-dichlorophenyl)-8-{3-[(4-methylpiperazin-1-yl)methyl]phenyl}-2-{[4-(4-methylpiperazin-1-yl)phenyl]amino}pyrimido[4,5-d]pyridazin-5(6H)-one] | 0.2 |
| CN1CCN(c2ccc(Nc3ncc4c(=O)n(-c5c(Cl)cccc5Cl)nc(-c5cccc(C(=O)N6CCC6)c5)c4n3)cc2)CC1 [Example 216, 8-[3-(azetidin-1-ylcarbonyl)phenyl]-6-(2,6-dichlorophenyl)-2-{[4-(4-methylpiperazin-1-yl)phenyl]amino}pyrimido[4,5-d]pyridazin-5(6H)-one] | 0.1 |
| O=c1c2cnc(Nc3ccc4c(c3)CNCC4)nc2c(-c2ccccn2)nn1-c1c(Cl)cccc1Cl [Example 217, 6-(2,6-dichlorophenyl)-8-(pyridin-2-yl)-2-(1,2,3,4-tetrahydroisoquinolin-7-ylamino)pyrimido[4,5-d]pyridazin-5(6H)-one] | 0.1 |
| Nc1ccc(N2CCN(c3ncc4c(=O)n(-c5ccncc5)nc(-c5ccccn5)c4n3)CC2)cc1 [Example 218, 2-(4-(4-aminophenyl)piperazin-1-yl)-8-(pyridin-2-yl)-6-(pyridin-4-yl)pyridazino[4,5-d]pyrimidin-5(6H)-one] | 480 |
| CC(=O)c1cc(-c2nn(-c3c(Cl)cccc3Cl)c(=O)c3cnc(Nc4ccc(N5CCN(C)CC5)cc4)nc23)ccn1 [Example 219, 8-(2-acetylpyridin-4-yl)-6-(2,6-dichlorophenyl)-2-{[4-(4-methylpiperazin-1-yl)phenyl]amino}pyrimido[4,5-d]pyridazin-5(6H)-one] | 0.1 |
| O=c1c2cnc(Nc3ccc(N4CCNCC4)cc3)nc2c(-c2cnccn2)nn1-c1c(Cl)cccc1Cl [Example 220, 6-(2,6-dichlorophenyl)-2-{[4-(piperazin-1-yl)phenyl]amino}-8-(pyrazin-2-yl)pyrimido[4,5-d]pyridazin-5(6H)-one] | 0.4 |
| O=c1c2cnc(Nc3ccc4c(c3)CNCC43CC3)nc2c(-c2ccccn2)nn1-c1c(Cl)cccc1Cl [Example 221, 6-(2,6-dichlorophenyl)-2-(2′,3′-dihydro-1′H-spiro[cyclopropane-1,4′-isoquinolin]-7′-ylamino)-8-(pyridin-2-yl)pyrimido[4,5-d]pyridazin-5(6H)-one] | 0.2 |
| COC(=O)c1cc(-c2nn(-c3c(Cl)cccc3Cl)c(=O)c3cnc(Nc4ccc(N5CCN(C)CC5)cc4)nc23)ccn1 [Example 222, methyl 4-[6-(2,6-dichlorophenyl)-2-{[4-(4-methylpiperazin-1-yl)phenyl]amino}-5-oxo-5,6-dihydropyrimido[4,5-d]pyridazin-8-yl]pyridine-2-carboxylate] | 0.2 |
| Cc1cc(Nc2ncc3c(=O)n(-c4c(Cl)cccc4Cl)nc(-c4ccccn4)c3n2)ccc1N1CCCN(C)CC1 [Example 223] | 0.2 |
| O=c1c2cnc(Nc3ccc4c(c3)CNCC4)nc2c(-c2ccncc2)nn1-c1c(Cl)cccc1Cl [Example 224, 6-(2,6-dichlorophenyl)-8-(pyridin-4-yl)-2-(1,2,3,4-tetrahydroisoquinolin-7-ylamino)pyrimido[4,5-d]pyridazin-5(6H)-one] | 0.07 |
| CN1CCN(c2ccc(Nc3ncc4c(=O)n(-c5c(Cl)cccc5Cl)nc(-c5ccnc(C(=O)N6CCCC6)c5)c4n3)cc2)CC1 [Example 225, 6-(2,6-dichlorophenyl)-2-{[4-(4-methylpiperazin-1-yl)phenyl]amino}-8-[2-(pyrrolidin-1-ylcarbonyl)pyridin-4-yl]pyrimido[4,5-d]pyridazin-5(6H)-one] | 0.3 |
| O=c1c2cnc(Nc3ccc(N4CCNCC4)cc3)nc2c(-c2cccc(F)n2)nn1-c1c(Cl)cccc1Cl [Example 226, 6-(2,6-dichlorophenyl)-8-(6-fluoropyridin-2-yl)-2-{[4-(piperazin-1-yl)phenyl]amino}pyrimido[4,5-d]pyridazin-5(6H)-one] | < 1 |
| CN1Cc2cc(Nc3ncc4c(=O)n(-c5c(Cl)cccc5Cl)nc(-c5cccc(F)n5)c4n3)ccc2C2(CC2)C1 [Example 227, 6-(2,6-dichlorophenyl)-8-(6-fluoropyridin-2-yl)-2-[(2′-methyl-2′,3′-dihydro-1′H-spiro[cyclopropane-1,4′-isoquinolin]-7′-yl)amino]pyrimido[4,5-d]pyridazin-5(6H)-one] | < 1 |
| C=CCn1nc(-c2ccco2)c2nc(Nc3ccc(N4CCCN(C(C)C)CC4)c(C)c3)ncc2c1=O [Example 228, 8-(furan-2-yl)-2-({3-methyl-4-[4-(propan-2-yl)-1,4-diazepan-1-yl]phenyl}amino)-6-(prop-2-en-1-yl)pyrimido[4,5-d]pyridazin-5(6H)-one] | 3 |
| O=C1CCCN1c1ccc(-c2nn(-c3c(Cl)cccc3Cl)c(=O)c3cnc(Nc4ccc(N5CCNCC5)cc4)nc23)cc1 [Example 229, 6-(2,6-dichlorophenyl)-8-[4-(2-oxopyrrolidin-1-yl)phenyl]-2-{[4-(piperazin-1-yl)phenyl]amino}pyrimido[4,5-d]pyridazin-5(6H)-one] | 0.2 |
| C=CCn1nc(-c2ccccc2)c2nc(Nc3ccc4c(c3)CN(C)CC4)ncc2c1=O [Example 230, 2-[(2-methyl-1,2,3,4-tetrahydroisoquinolin-7-yl)amino]-8-phenyl-6-(prop-2-en-1-yl)pyrimido[4,5-d]pyridazin-5(6H)-one] | 5 |
